# Like-named read-outs stand apart in the source and are kept apart here.
# What was measured:
# Gram-positive cocci = experiment: MIC broth microdilution, overall summary; type: cell-based; conditions: summary of MIC testing
# Description: (§1) Twenty-four test agents were shipped to Micromyx and stored at −20° C. until assayed. The compounds were dissolved in 100% DMSO at 6.46 mg/mL prior to testing. Comparator drugs were supplied by Micromyx and were handled as described below:
# (§2) The test organisms for the assay were recent clinical isolates or reference strains acquired from the American Type Culture Collection (ATCC; Manassas, Va.). Upon receipt, the isolates were streaked onto Trypticase Soy Agar II+5% sheep blood (TSAB). Colonies were harvested from the plates and a cell suspension was prepared in Trypticase Soy Broth containing cryoprotectant. Aliquots were then frozen at −80° C. Prior to the assay, the frozen seeds of all bacterial isolates to be tested were thawed and streaked for isolation onto TSAB (BD/BBL, Sparks, Md.; Lot No. 9011894), and were incubated overnight at 35° C.
# (§3) The test medium for all isolates was cation-adjusted Mueller Hinton broth (CAMHB; BD/BBL; Lot No. 8190586). CAMHB (Cation Adjusted Mueller Hinton Broth) was supplemented with 3% (v/v) lysed horse blood (LHB; Hemostat, Dixon, Calif.; Lot No. 474990) for the testing of streptococci.
# (§4) MIC values were determined using a broth microdilution method as recommended by CLSI. Automated liquid handlers (Multidrop 384, Labsystems, Helsinki, Finland; Biomek 2000 and Biomek F/X, Beckman Coulter, Fullerton Calif.) were used to conduct serial dilutions and make liquid transfers.
# (§5) The wells of standard 96-well microdilution plates (Costar 3795, Corning Inc., Corning, N.Y.) were filled with 150 μL of the appropriate diluent in columns 2-12 on the Multidrop 384 (DMSO for the thiostrepton analogs, deionized H2O for vancomycin and ceftazidime). These plates were used to prepare the drug “mother plate” which provided the serial drug dilutions for the replicate “daughter plates”. The compounds (300 μL) were dispensed at 101× the highest concentration to be tested into the appropriate row of the “mother plate”. The Biomek 2000 was used to transfer 150 μL of each stock solution from the wells in Column 1 of the mother plate to make ten subsequent 2-fold serial dilutions. The wells of Column 12 contained no drug and served as the organism growth control wells. The daughter plates were loaded with 190 μL of test medium using the Multidrop 384.
# The daughter plates were prepared on the Biomek F/X instrument which transferred […] of drug solution from each well of the mother plate to each corresponding well of each daughter plate in a single step. […]
# (§6) Plates were stacked 3 high, covered with a lid on the top plate, placed in plastic bags, and incubated at 35° C. for 16-20 hr for all organisms except streptococci which were incubated for 20-24 hr. […] The MIC was read and recorded as the lowest concentration of drug that inhibited visible growth of the organism. […]
# [1] = tested on: E. faecalis ATCC 29212 VSE; experiment: MIC broth microdilution; type: cell-based; conditions: Enterococcus faecalis, ATCC29212
# Description: as §1, §2, §3, §4, §5
# (§7) The daughter plates were prepared on the Biomek F/X instrument which transferred […] of drug solution from each well of the mother plate to each corresponding well of each daughter plate in a single step. The wells of the daughter plates ultimately contained 190 μL of media, 2 μL of drug solution, and 10 μL of inoculum prepared as described below. The final concentration of DMSO (if used as a solvent) in the test well was 1%.
# (§8) A standardized inoculum of each organism was prepared per CLSI methods. A suspension of organisms from a fresh plate was prepared in CAMHB to equal the turbidity of a 0.5 McFarland standard. The suspensions were diluted 1:20 in CAMHB, or in the case of streptococci CAMHB with LHB. The inoculum for each organism was dispensed into sterile reservoirs divided by length (Beckman Coulter), and the Biomek 2000 was used to inoculate the plates. Daughter plates were placed on the Biomek 2000 work surface reversed so that inoculation took place from low to high drug concentration. The Biomek 2000 delivered 10 μL of standardized inoculum into each well. These dilutions yielded a final cell concentration in the daughter plates of approximately 5.0×10^5 CFU/mL.
# (§9) Plates were stacked 3 high, covered with a lid on the top plate, placed in plastic bags, and incubated at 35° C. for 16-20 hr for all organisms except streptococci which were incubated for 20-24 hr. Following incubation, the microplates were removed from the incubator and viewed from the bottom using a plate viewer. The MIC was read and recorded as the lowest concentration of drug that inhibited visible growth of the organism. […]
# [2] = tested on: S. aureus ATCC 29213 MSSA; experiment: MIC broth microdilution; type: cell-based; conditions: Staphylococcus aureus
# Description: as §1, §2, §3, §4, §5, §7, §8, §9
# E. coli ATCC 25922 = experiment: MIC broth microdilution; type: cell-based
# Description: as §1, §2, §3, §4, §5, §7, §8, §9
# S. aureus MMX 8088 MRSA = experiment: MIC broth microdilution; type: cell-based; conditions: Staphylococcus aureus
# Description: as §1, §2, §3, §4, §5, §7, §8, §9
# E. faecium MMX 708 VSE = experiment: MIC broth microdilution; type: cell-based; conditions: Enterococcus faecium, MMX708VSE
# Description: as §1, §2, §3, §4, §5, §7, §8, §9
# E. faecalis MMX 486 VRE = experiment: MIC broth microdilution; type: cell-based; conditions: Enterococcus faecalis
# Description: as §1, §2, §3, §4, §5, §7, §8, §9
# S. pyogenes ATCC 19615 = experiment: MIC broth microdilution; type: cell-based; conditions: Streptococcus pyogenes, ATCC19615, 20 h
# Description: as §1, §2, §3, §4, §5, §7, §8, §9
# E. faecium MMX 485 VRE = experiment: MIC broth microdilution; type: cell-based; conditions: Enterococcus faecium
# Description: as §1, §2, §3, §4, §5, §7, §8, §9
# [3] = tested on: S. pneumoniae ATCC 49619 PISP; experiment: MIC broth microdilution; type: cell-based; conditions: Streptococcus pneumoniae, ATCC49619, 20 h
# Description: as §1, §2, §3, §4, §5, §7, §8, §9
# S. aureus isolates = experiment: MIC broth microdilution, S. aureus isolates; type: cell-based; conditions: for MIC: Staphylococcus aureus, read-out: MIC values against S. aureus isolates
# Description: as §1, §2, §3, §4, §5, §7, §8, §9
# [4] = Aqueous solubility analysis in MOPS buffer; type: physicochemical; conditions: after 24 hours in 10 mM aqueous MOPS buffer; for solubility at 24 h: aqueous 10 mM MOPS buffer, thermodynamic from solid, pH 7.2
# Description: A 2 dram vial was loaded with ˜0.5 mg of a thiostrepton derivative and suspended in ˜4 mL of aqueous 10 mM MOPS buffer (pKa 7.2). The suspension was stirred vigorously for 24 h to ensure equilibration, then filtered through a […] centrifuge filtration unit. A 3.0 mL aliquot was concentrated, and the dried residue was diluted with 0.30 mL of 1:1 1,4-dioxane/H2O (10× original concentration necessitated by detection limits). The total UV absorbance (200-300 nm) was measured in triplicate by UPLC runs with a photodiode array detector. A calibration curve for each compound was created using data points from 3 trials each of concentrations in 1:1 1,4-dioxane/H2O ranging from […]. These concentrations were plotted against their respective average absorbances. The experimental concentration of each compound was calculated by dividing the found μg/mL value by the residue concentration factor of 10 to yield the actual solubility value.
# [5] = tested on: E. faecalis and E. faecium; experiment: MIC broth microdilution, summary over enterococci; type: cell-based; conditions: for MIC: read-out: MIC values against E. faecalis and E. faecium
# Description: as §1, §2, §3, §4, §5, §7, §8, §9
# [6] = Un-inoculated solubility control plate (drug precipitation); type: physicochemical; conditions: for Precipitation in CAMHB: at 64 μg/mL in CAMHB; for Precipitation in CAMHB in LHB: at 64 μg/mL in CAMHB in LHB
# [7] = tested on: S. pneumoniae and S. pyogenes isolates; experiment: MIC broth microdilution, summary over streptococci; type: cell-based; conditions: read-out: MIC values against S. pneumoniae and S. pyogenes isolates
# Description: as §1, §2
# The test medium for all isolates was cation-adjusted Mueller Hinton broth (CAMHB; BD/BBL; Lot No. 8190586). […]
# MIC values were determined using a broth microdilution method as recommended by CLSI. […]
# as §6
# [8] = E. faecalis ATCC 29212 VSE, CAMHB, read-out: MIC
# [9] = S. aureus ATCC 29213 MSSA, CAMHB, read-out: MIC
# [10] = Escherichia coli, ATCC25922, E. coli ATCC 25922, CAMHB, read-out: MIC
# [11] = S. aureus MMX 8088 MRSA, CAMHB, read-out: MIC
# [12] = E. faecium MMX 708 VSE, CAMHB, read-out: MIC
# [13] = E. faecalis MMX 486 VRE, CAMHB, read-out: MIC
# [14] = S. pyogenes ATCC 19615, CAMHB with 3% lysed horse blood, read-out: MIC
# [15] = E. faecium MMX 485 VRE, CAMHB, read-out: MIC
# [16] = S. pneumoniae ATCC 49619 PISP, CAMHB with 3% lysed horse blood, read-out: MIC
# [17] = across the evaluated enterococci, VSE and VRE
SMILES,Activity among the evaluated analogs / against evaluated Gram-positive cocci (summary in words) (Gram-positive cocci),"MIC [1, 8]","MIC [2, 9]",MIC (E. coli ATCC 25922; [10]),MIC (S. aureus MMX 8088 MRSA; [11]),MIC (E. faecium MMX 708 VSE; [12]),MIC (E. faecalis MMX 486 VRE; [13]),MIC (S. pyogenes ATCC 19615; [14]),MIC (E. faecium MMX 485 VRE; [15]),"MIC [3, 16]",MIC (S. aureus isolates; across MSSA and MRSA isolates),solubility at 24 h [4],"MIC [5, 17]",Precipitation in CAMHB [6],Precipitation in CAMHB in LHB [6],also measured
C=C(NC(=O)c1csc(C2=N[C@@H]3c4csc(n4)[C@H]4NC(=O)c5csc(n5)[C@H]([C@](C)(O)[C@@H](C)O)NC(=O)C5CSC(=N5)/C(=C/C)NC(=O)[C@H]([C@@H](C)O)NC(=O)c5csc(n5)[C@]3(CC2)NC(=O)[C@H](C)NC(=O)C(=C)NC(=O)[C@H](C)NC(=O)[C@H]([C@@H](C)CC)N[C@@H]2C=Cc3c([C@H](C)O)cc(nc3[C@H]2O)C(=O)O[C@@H]4C)n1)C(=O)NC(=CNC(=O)c1ccc(Cl)cc1)C(N)=O [RJS-09],most activity,0.25 µg/mL,0.25 µg/mL,> 64 µg/mL,0.5 µg/mL,0.25 µg/mL,0.25 µg/mL,0.002 µg/mL,0.12 µg/mL,< 0.001 µg/mL,0.25 to 0.5 µg/mL,< 1 µg/mL,0.12 to 0.25 µg/mL,distinct precipitation,,
C=C(NC(=O)C(=C)NC(=O)c1csc(C2=N[C@@H]3c4csc(n4)[C@H]4NC(=O)c5csc(n5)[C@H]([C@](C)(O)[C@@H](C)O)NC(=O)[C@H]5CSC(=N5)/C(=C/C)NC(=O)[C@H]([C@@H](C)O)NC(=O)c5csc(n5)[C@]3(CC2)NC(=O)[C@H](C)NC(=O)C(=C)NC(=O)[C@H](C)NC(=O)[C@H]([C@@H](C)CC)N[C@@H]2C=Cc3c([C@H](C)O)cc(nc3[C@H]2O)C(=O)O[C@@H]4C)n1)C(N)=O [Thiostrepton],potent activity,,,,,,,,,,,,,distinct precipitation,distinct precipitation,"MIC [7]: ≤ 0.001 µg/mL; MIC [1]: 0.12 µg/mL; MIC [2]: 0.06 µg/mL; MIC (E. coli ATCC 25922; E. coli ATCC 25922, CAMHB): >64 µg/mL; MIC (E. coli ATCC 25922; Escherichia coli, ATCC25922): > 64 µg/mL; MIC (S. aureus MMX 8088 MRSA; MRSA): 0.12 µg/mL; MIC (E. faecium MMX 708 VSE): 0.12 µg/mL; MIC (E. faecalis MMX 486 VRE; VRE): 0.12 µg/mL; MIC (S. pyogenes ATCC 19615): < 0.001 µg/mL; MIC (E. faecium MMX 485 VRE; VRE): 0.06 µg/mL; MIC [3]: < 0.001 µg/mL; MIC (S. aureus isolates): 0.06 to 0.12 µg/mL; MIC values against MRSA relative to MSSA (S. aureus isolates; identical or within 2-fold, impact of methicillin resistance): ≤ 2 fold; Solubility pH 7.2 [4]: 3.0 (±0.2) μg/mL; VRE MIC values relative to VSE MIC values ([5]; impact of vancomycin resistance among enterococci): comparable; MIC [5]: 0.06 to 0.12 µg/mL"
C=C(NC(=O)c1csc(C2=N[C@@H]3c4csc(n4)[C@H]4NC(=O)c5csc(n5)[C@H]([C@](C)(O)[C@@H](C)O)NC(=O)C5CSC(=N5)/C(=C/C)NC(=O)[C@H]([C@@H](C)O)NC(=O)c5csc(n5)[C@]3(CC2)NC(=O)[C@H](C)NC(=O)C(=C)NC(=O)[C@H](C)NC(=O)[C@H]([C@@H](C)CC)N[C@@H]2C=Cc3c([C@H](C)O)cc(nc3[C@H]2O)C(=O)O[C@@H]4C)n1)C(=O)NC(=CNC(=O)c1cccc(/C=N/OC2O[C@H](CO)[C@@H](O)[C@H](O)[C@H]2O)c1)C(N)=O (stereo partly drawn) [RJS-16],least activity,16 µg/mL,16 µg/mL,> 64 µg/mL,16 µg/mL,16 µg/mL,16 µg/mL,0.25 µg/mL,8 µg/mL,0.25 µg/mL,16 µg/mL,11 µg/mL,8 to 16 µg/mL,,distinct precipitation,MIC ([7]; across evaluated streptococci): 0.25 µg/mL

# Source: patent US20220315624A1, “THIOSTREPTON ANALOGS AND METHODS OF MAKING AND USING SAME” (YALE UNIVERSITY, priority 2019, published 2022)
